Experimental data published in PMC6973051, “Proline‐Rich Peptides with Improved Antimicrobial Activity against E. coli, K. pneumoniae, and A. baumannii” (Chemmedchem, 2019).
Where two headings read alike, the source gives them in different places. Ends that are not written are not given here.

Tested on: E. coli BW25113
Assay type: cell-based, Escherichia coli
Description: The following bacterial strains were used: Escherichia coli BW25113, E. coli BW25113ΔsbmA (JW0368‐1, KEIO collection21); Acinetobacter baumannii ATCC 19606, Klebsiella pneumoniae ATCC 700603, Pseudomonas aeruginosa ATCC 27853 and Staphylococcus aureus ATCC 25923. The pathogenic E. coli EURL‐VTEC A07, E. coli EURL‐VTEC C07, E. coli SSI‐NN14, E. coli EA22, E. coli SSI‐OO15 and E. coli C679‐12 strains were generously provided by the European Union Reference Laboratory for E. coli, Department of Food Safety, Nutrition and Veterinary Public Health, Istituto Superiore di Sanità, Rome, Italy. All the strains were grown overnight in Müller‐Hinton broth (MHB, Difco) at 37 °C, with shaking (140 rpm). The day after, the overnight bacterial cultures were diluted approx. 1 : 40 in fresh MHB and incubated at 37 °C with shaking (140 rpm) until an OD600nm of ≈0.3 was reached. E. coli BW25113ΔsbmA was grown in the presence of 50 μg mL^−1 kanamycin.
Peptides were diluted in 100 μL of MHB to the concentration of 128 μM, dispensed in the first wells of a 96‐wells microtiter plate (round‐bottom) and serially two‐fold diluted with MHB into successive wells in a final volume of 50 μl. Subsequently, 50 μL of a bacterial suspension (5×10^5 CFU mL^−1) were added to each well, halving the final concentration of bacteria and peptides. Bacteria were added to MHB only as bacterial growth‐control, whereas 100 μl of MHB were used to check the medium sterility. The plate was incubated overnight at 37 °C (≈18 hours) and sealed with parafilm to minimise evaporation. The MIC was calculated as the first clear well without bacterial growth. If barely detectable growth was present, the OD600nm of the plate was measured by a multiplate reader Tecan (software Sunrise). The MIC was then calculated as the well whose OD620 was≤1 % of that of the untreated growth control.

Row | Substance | MIC (BW25113, 18 h) [µM] | MIC (single-substitution library by SPOT‐synthesis (unpurified), MHB, ≈18 hours, 37 °C, median of n≥3) [µM]
1 | AFRPPIRRPPIRPPFYPG-NH2 [R1A] | 48 | 
2 | EFRPPIRRPPIRPPFYPG-NH2 [R1E] | >64 | 
3 | FFRPPIRRPPIRPPFYPG-NH2 [R1F] | 64 | 
4 | GFRPPIRRPPIRPPFYPG-NH2 [R1G] | 32 | 
5 | PFRPPIRRPPIRPPFYPG-NH2 [R1P] | 64 | 
6 | RARPPIRRPPIRPPFYPG-NH2 (C-terminus assumed) [F2A] | 32 | 
7 | RERPPIRRPPIRPPFYPG-NH2 (C-terminus assumed) [F2E] | >64 | 
8 | RFAPPIRRPPIRPPFYPG-NH2 [R3A] | 64 | 
9 | RFEPPIRRPPIRPPFYPG-NH2 [R3E] | >64 | 
10 | RFFPPIRRPPIRPPFYPG-NH2 [R3F] | 64 | 
11 | RFGPPIRRPPIRPPFYPG-NH2 [R3G] | 64 | 
12 | RFPPPIRRPPIRPPFYPG-NH2 [R3P] | 64 | 
13 | RFRAPIRRPPIRPPFYPG-NH2 (C-terminus assumed) [P4A] | 24 | 
14 | RFREPIRRPPIRPPFYPG-NH2 (C-terminus assumed) [P4E] | 64 | 
15 | RFRFPIRRPPIRPPFYPG-NH2 (C-terminus assumed) [P4F] | 8 | 
16 | RFRGPIRRPPIRPPFYPG-NH2 (C-terminus assumed) [P4G] | 8 | 
17 | RFRPAIRRPPIRPPFYPG-NH2 (C-terminus assumed) [P5A] | 64 | 
18 | RFRPEIRRPPIRPPFYPG-NH2 (C-terminus assumed) [P5E] | >64 | 
19 | RFRPFIRRPPIRPPFYPG-NH2 (C-terminus assumed) [P5F] | 32 | 
20 | RFRPGIRRPPIRPPFYPG-NH2 (C-terminus assumed) [P5G] | >64 | 
21 | RFRPPARRPPIRPPFYPG-NH2 (C-terminus assumed) [I6A] | 64 | 
22 | RFRPPERRPPIRPPFYPG-NH2 (C-terminus assumed) [I6E] | >64 | 
23 | RFRPPFRRPPIRPPFYPG-NH2 (C-terminus assumed) [I6F] | 16 | 
24 | RFRPPGRRPPIRPPFYPG-NH2 (C-terminus assumed) [I6G] | >64 | 
25 | RFRPPIARPPIRPPFYPG-NH2 [R7A] | >64 | 
26 | RFRPPIERPPIRPPFYPG-NH2 [R7E] | >64 | 

Row | Substance | MIC (BW25113, 18 h) [µM] | MIC (single-substitution library by SPOT‐synthesis (unpurified), MHB, ≈18 hours, 37 °C, median of n≥3) [µM]
27 | RFRPPIFRPPIRPPFYPG-NH2 [R7F] | 32 | 
28 | RFRPPIGRPPIRPPFYPG-NH2 [R7G] | >64 | 
29 | RFRPPIPRPPIRPPFYPG-NH2 [R7P] | >64 | 
30 | RFRPPIRAPPIRPPFYPG-NH2 [R8A] | >64 | 
31 | RFRPPIREPPIRPPFYPG-NH2 [R8E] | >64 | 
32 | RFRPPIRFPPIRPPFYPG-NH2 [R8F] | >64 | 
33 | RFRPPIRGPPIRPPFYPG-NH2 [R8G] | >64 | 
34 | RFRPPIRPPPIRPPFYPG-NH2 [R8P] | >64 | 
35 | RFRPPIRRAPIRPPFYPG-NH2 (C-terminus assumed) [P9A] | >64 | 
36 | RFRPPIRREPIRPPFYPG-NH2 (C-terminus assumed) [P9E] | >64 | 
37 | RFRPPIRRFPIRPPFYPG-NH2 (C-terminus assumed) [P9F] | 16 | 
38 | RFRPPIRRGPIRPPFYPG-NH2 (C-terminus assumed) [P9G] | >64 | 
39 | RFRPPIRRPAIRPPFYPG-NH2 (C-terminus assumed) [P10A] | >64 | 
40 | RFRPPIRRPEIRPPFYPG-NH2 (C-terminus assumed) [P10E] | >64 | 
41 | RFRPPIRRPFIRPPFYPG-NH2 [P10F] | 64 | 
42 | RFRPPIRRPGIRPPFYPG-NH2 [P10G] | >64 | 
43 | RFRPPIRRPPARPPFYPG-NH2 (C-terminus assumed) [I11A] | >64 | 
44 | RFRPPIRRPPERPPFYPG-NH2 (C-terminus assumed) [I11E] | >64 | 
45 | RFRPPIRRPPFRPPFYPG-NH2 (C-terminus assumed) [I11F] | 32 | 
46 | RFRPPIRRPPGRPPFYPG-NH2 (C-terminus assumed) [I11G] | >64 | 
47 | RFRPPIRRPPIAPPFYPG-NH2 [R12A] | >64 | 
48 | RFRPPIRRPPIEPPFYPG-NH2 [R12E] | >64 | 
49 | RFRPPIRRPPIFPPFYPG-NH2 [R12F] | >64 | 
50 | RFRPPIRRPPIGPPFYPG-NH2 [R12G] | >64 | 
51 | RFRPPIRRPPIPPPFYPG-NH2 [R12P] | >64 | 
52 | RFRPPIRRPPIRAPFYPG-NH2 [P13A] | >64 | 

Row | Substance | MIC (BW25113, 18 h) [µM] | MIC (single-substitution library by SPOT‐synthesis (unpurified), MHB, ≈18 hours, 37 °C, median of n≥3) [µM]
53 | RFRPPIRRPPIREPFYPG-NH2 [P13E] | >64 | 
54 | RFRPPIRRPPIRFPFYPG-NH2 [P13F] | 32 | 
55 | RFRPPIRRPPIRGPFYPG-NH2 [P13G] | >64 | 
56 | RFRPPIRRPPIRPAFYPG-NH2 [P14A] | >64 | 
57 | RFRPPIRRPPIRPEFYPG-NH2 [P14E] | >64 | 
58 | RFRPPIRRPPIRPFFYPG-NH2 [P14F] | 32 | 
59 | RFRPPIRRPPIRPGFYPG-NH2 [P14G] | >64 | 
60 | RFRPPIRRPPIRPPAYPG-NH2 (C-terminus assumed) [F15A] | 64 | 
61 | RFRPPIRRPPIRPPEYPG-NH2 (C-terminus assumed) [F15E] | >64 | 
62 | RFRPPIRRPPIRPPFAPG-NH2 [Y16A] | 64 | 
63 | RFRPPIRRPPIRPPFEPG-NH2 [Y16E] | >64 | 
64 | RFRPPIRRPPIRPPFFPG-NH2 [Y16F] | 16 | 
65 | RFRPPIRRPPIRPPFGPG-NH2 [Y16G] | >64 | 
66 | RFRPPIRRPPIRPPFPPG-NH2 [Y16P] | 64 | 
67 | RFRPPIRRPPIRPPFRPG-NH2 [Y16R] | 16 | 
68 | RFRPPIRRPPIRPPFSPG-NH2 [Y16S] | >64 | 
69 | RFRPPIRRPPIRPPFYAG-NH2 [P17A] | 16 | 
70 | RFRPPIRRPPIRPPFYEG-NH2 [P17E] | >64 | 
71 | RFRPPIRRPPIRPPFYFG-NH2 [P17F] | 16 | 
72 | RFRPPIRRPPIRPPFYGG-NH2 [P17G] | 16 | 
73 | RFRPPIRRPPIRPPFYPG-NH2 [wt (SPOT form), reference compound] | 32 | 16
74 | RFRPPIRRPPIRPPFYRG-NH2 [258 (SPOT form)] | 8 | 
75 | RFRPPIRRPPIRPPFYSG-NH2 [P17S] | 16 | 
76 | RFRPPIRRPPIRPPGYPG-NH2 (C-terminus assumed) [F15G] | 32 | 
77 | RFRPPIRRPPIRPPPYPG-NH2 (C-terminus assumed) [F15P] | >64 | 
78 | RFRPPIRRPPIRPPRYPG-NH2 (C-terminus assumed) [F15R] | 32 | 

Row | Substance | MIC (BW25113, 18 h) [µM] | MIC (single-substitution library by SPOT‐synthesis (unpurified), MHB, ≈18 hours, 37 °C, median of n≥3) [µM]
79 | RFRPPIRRPPIRPPSYPG-NH2 (C-terminus assumed) [F15S] | 64 | 
80 | RFRPPIRRPPIRPRFYPG-NH2 [P14R] | 32 | 
81 | RFRPPIRRPPIRPSFYPG-NH2 [P14S] | 64 | 
82 | RFRPPIRRPPIRPWFYPG-NH2 [P14W] | 16 | 
83 | RFRPPIRRPPIRRPFYPG-NH2 [P13R] | 64 | 
84 | RFRPPIRRPPIRSPFYPG-NH2 [P13S] | 64 | 
85 | RFRPPIRRPPIRWPFYPG-NH2 [P13W] | 16 | 
86 | RFRPPIRRPPISPPFYPG-NH2 [R12S] | >64 | 
87 | RFRPPIRRPPIWPPFYPG-NH2 [R12W] | >64 | 
88 | RFRPPIRRPPPRPPFYPG-NH2 (C-terminus assumed) [I11P] | >64 | 
89 | RFRPPIRRPPRRPPFYPG-NH2 (C-terminus assumed) [I11R] | >64 | 
90 | RFRPPIRRPPSRPPFYPG-NH2 (C-terminus assumed) [I11S] | >64 | 
91 | RFRPPIRRPPWRPPFYPG-NH2 (C-terminus assumed) [I11W] | 32 | 
92 | RFRPPIRRPRIRPPFYPG-NH2 [P10R] | >64 | 
93 | RFRPPIRRPSIRPPFYPG-NH2 [P10S] | 64 | 
94 | RFRPPIRRPWIRPPFYPG-NH2 [P10W] | 32 | 
95 | RFRPPIRRRPIRPPFYPG-NH2 (C-terminus assumed) [P9R] | 8 | 
96 | RFRPPIRRSPIRPPFYPG-NH2 (C-terminus assumed) [P9S] | 64 | 
97 | RFRPPIRRWPIRPPFYPG-NH2 (C-terminus assumed) [P9W] | 16 | 
98 | RFRPPIRSPPIRPPFYPG-NH2 [R8S] | >64 | 
99 | RFRPPIRWPPIRPPFYPG-NH2 [R8W] | 32 | 
100 | RFRPPISRPPIRPPFYPG-NH2 [R7S] | >64 | 
101 | RFRPPIWRPPIRPPFYPG-NH2 [R7W] | 64 | 
102 | RFRPPPRRPPIRPPFYPG-NH2 (C-terminus assumed) [I6P] | >64 | 
103 | RFRPPRRRPPIRPPFYPG-NH2 (C-terminus assumed) [I6R] | 16 | 
104 | RFRPPSRRPPIRPPFYPG-NH2 (C-terminus assumed) [I6S] | 64 | 
